Source: patent US20100286173A1 (priority 2008, published 2010)

Assay: Measurement of logP values by HPLC on reversed phase columns (EEC directive 79/831 Annex V.A8)
Assay type: physicochemical
Conditions: pH 2.7, 0.1% formic acid in water / acetonitrile gradient 10% to 95%
`CCCCCOC(=O)Nc1cccc(CON=C(c2ccc(C(F)(F)F)cc2F)c2nnnn2C)n1` (single isomer, unassigned) [Example 23] showed a logp of 4.78.
Compound `CCCCCOC(=O)Nc1cccc(CON=C(c2ccc(C(F)(F)F)cc2F)c2nnnn2C)n1` (single isomer, unassigned) [Example 24] has a logp of 4.73.
In the case of `CC(C)C(=O)Nc1cccc(CON=C(c2ccc(C(F)(F)F)cc2F)c2nnnn2C)n1` (single isomer, unassigned) [Example 28], the logp is reported as 3.48.
Work on `CCCCCOC(=O)Nc1cccc(CON=C(c2ccc(OC(F)(F)F)cc2C)c2nnnn2C)n1` (single isomer, unassigned) [Example 96] yielded a logp of 4.89.
For `CCCCCOC(=O)Nc1cccc(CON=C(c2ccc(OC(F)(F)F)cc2C)c2nnnn2C)n1` (single isomer, unassigned) [Example 97], the logp was 5.11.
Compound `CCCCCC(=O)Nc1cccc(CON=C(c2ccc(C)c(F)c2)c2nnnn2C)n1` (single isomer, unassigned) [Example 102] has a logp of 4.21.
Work on `CCCCCC(=O)Nc1cccc(CON=C(c2ccc(OC(F)(F)F)cc2C)c2nnnn2C)n1` (single isomer, unassigned) [Example 108] yielded a logp of 4.39.
In the case of `CCCCCOC(=O)Nc1cccc(CON=C(c2cc(C(F)(F)F)ccc2C)c2nnnn2C)n1` (single isomer, unassigned) [Example 110], the logp is reported as 4.84.
With `CCCCCC(=O)Nc1cccc(CON=C(c2ccc(C)cc2Cl)c2nnnn2C)n1` (single isomer, unassigned) [Example 113] the logp was 4.16.
With `CCCCCC(=O)Nc1cccc(CON=C(c2ccc(C)c(F)c2)c2nnnn2C)n1` (single isomer, unassigned) [Example 114] the logp was 4.16.
`CCCCCC(=O)Nc1cccc(CON=C(c2cc(C)ccc2Cl)c2nnnn2C)n1` (single isomer, unassigned) [Example 117] showed a logp of 4.19.
Work on `Cn1nnnc1C(=NOCc1cccc(N)n1)c1ccc(C(F)(F)F)cc1F` (single isomer, unassigned) [Example 141] yielded a Log p of 1.82.
Compound `Cn1nnnc1C(=NOCc1cccc(N)n1)c1ccc(C(F)(F)F)cc1F` (single isomer, unassigned) [Example 142] has a Log p of 1.72.
In the case of `Cn1nnnc1C(=NOCc1cccc(N)n1)c1cccc(C(F)(F)F)c1F` (single isomer, unassigned) [Example 144], the Log p is reported as 1.65.
With `Cc1cc(F)cc(C(=NOCc2cccc(NC(=O)CC(C)C)n2)c2nnnn2C)c1` (single isomer, unassigned) [Example 157] the Log p was 3.71.
`Cc1cc(F)cc(C(=NOCc2cccc(NC(=O)CC(C)C)n2)c2nnnn2C)c1` (single isomer, unassigned) [Example 158] gave a Log p of 3.76.
Work on `CCCCCC(=O)Nc1cccc(CON=C(c2ccc(C(F)(F)F)cc2F)c2nnnn2C)n1` [Example 26] yielded a logp of 4.29.
`CCCCCC(=O)Nc1cccc(CON=C(c2cc(C)ccc2F)c2nnnn2C)n1` [Example 29] gave a logp of 3.83.
For `Cc1ccc(C(=NOCc2cccc(NC(=O)CC(C)C)n2)c2nnnn2C)cc1F` [Example 32], the logp was 3.71.
`Cc1cccc(C(=NOCc2cccc(NC(=O)CC(C)C)n2)c2nnnn2C)c1F` [Example 33] showed a logp of 3.51.
Work on `Cc1cc(OC(F)(F)F)ccc1C(=NOCc1cccc(NC(=O)CC(C)C)n1)c1nnnn1C` [Example 34] yielded a logp of 4.16.
Work on `Cc1ccc(Cl)c(C(=NOCc2cccc(NC(=O)CC(C)C)n2)c2nnnn2C)c1` [Example 35] yielded a logp of 3.73.
Work on `Cc1cc(C(=NOCc2cccc(NC(=O)CC(C)C)n2)c2nnnn2C)ccc1F` [Example 37] yielded a logp of 3.67.
Work on `Cc1ccc(C(=NOCc2cccc(NC(=O)CC(C)C)n2)c2nnnn2C)c(F)c1` [Example 38] yielded a logp of 3.53.
In the case of `CCCCCOC(=O)Nc1cccc(CON=C(c2cc(C)cc(C)c2)c2nnnn2C)n1` [Example 39], the logp is reported as 4.86.
Compound `Cc1ccc(C(=NOCc2cccc(NC(=O)CC(C)C)n2)c2nnnn2C)c(Cl)c1` [Example 40] has a logp of 3.73.
Compound `CCCCCC(=O)Nc1cccc(CON=C(c2cc(C)ccc2F)c2nnnn2C)n1` [Example 42] has a logp of 3.83.
`Cc1ccc(C(=NOCc2cccc(NC(=O)CC(C)C)n2)c2nnnn2C)cc1C(F)(F)F` [Example 43] showed a logp of 4.16.
For `CCCCCOC(=O)Nc1cccc(CON=C(c2cccc(C(F)(F)F)c2C)c2nnnn2C)n1` [Example 44], the logp was 4.78.
`CCCCCC(=O)Nc1cccc(CON=C(c2cc(F)cc(C(F)(F)F)c2)c2nnnn2C)n1` [Example 45] gave a logp of 4.29.
`Cc1ccc(C(=NOCc2cccc(NC(=O)CC(C)C)n2)c2nnnn2C)c(Cl)c1` [Example 46] gave a logp of 3.73.
Work on `Cc1ccc(F)c(C(=NOCc2cccc(NC(=O)CC(C)C)n2)c2nnnn2C)c1` [Example 48] yielded a logp of 3.53.
With `Cc1ccc(C(=NOCc2cccc(NC(=O)CC(C)C)n2)c2nnnn2C)c(Cl)c1` [Example 51] the logp was 3.53.
In the case of `CCCCCOC(=O)Nc1ccnc(CON=C(c2ccc(C)c(C(F)(F)F)c2)c2nnnn2C)n1` [Example 52], the logp is reported as 4.62.
With `C#CCCOC(=O)Nc1cccc(CON=C(c2ccc(F)c(C)c2)c2nnnn2C)n1` [Example 53] the logp was 3.55.
Work on `C=CCCOC(=O)Nc1cccc(CON=C(c2ccc(F)c(C)c2)c2nnnn2C)n1` [Example 55] yielded a logp of 3.92.
`C=CCOC(=O)Nc1cccc(CON=C(c2ccc(F)c(C)c2)c2nnnn2C)n1` [Example 56] gave a logp of 3.63.
Compound `Cc1cc(C(=NOCc2cccc(NC(=O)CCOc3ccccc3)n2)c2nnnn2C)ccc1F` [Example 57] has a logp of 3.87.
`Cc1cc(C(=NOCc2cccc(NC(=O)CCC3CCCC3)n2)c2nnnn2C)ccc1F` [Example 58] gave a logp of 4.56.
`COc1ccc(CC(=O)Nc2cccc(CON=C(c3ccc(F)c(C)c3)c3nnnn3C)n2)cc1` [Example 59] gave a logp of 3.68.
`COc1cccc(CC(=O)Nc2cccc(CON=C(c3ccc(F)c(C)c3)c3nnnn3C)n2)c1` [Example 60] gave a logp of 3.72.
With `COc1ccccc1CC(=O)Nc1cccc(CON=C(c2ccc(F)c(C)c2)c2nnnn2C)n1` [Example 61] the logp was 3.9.
For `Cc1ccc(Cl)c(C(=NOCc2cccc(NC(=O)CC(C)C)n2)c2nnnn2C)c1` [Example 62], the logp was 3.53.
For `CC(C)CC(=O)Nc1cccc(CON=C(c2cc(C(F)(F)F)ccc2Cl)c2nnnn2C)n1` [Example 63], the logp was 3.96.
Compound `Cc1ccc(C(F)(F)F)cc1C(=NOCc1cccc(NC(=O)CC(C)C)n1)c1nnnn1C` [Example 64] has a logp of 3.94.
In the case of `CC(C)CC(=O)Nc1cccc(CON=C(c2cc(F)cc(C(F)(F)F)c2)c2nnnn2C)n1` [Example 65], the logp is reported as 3.89.
`CC(C)CC(=O)Nc1cccc(CON=C(c2ccc(F)c(C(F)(F)F)c2)c2nnnn2C)n1` [Example 66] showed a logp of 3.94.
Compound `Cc1ccc(C(F)(F)F)cc1C(=NOCc1cccc(NC(=O)CC(C)C)n1)c1nnnn1C` [Example 67] has a logp of 3.62.
With `Cc1ccc(C(=NOCc2cccc(NC(=O)CC(C)C)n2)c2nnnn2C)cc1C(F)(F)F` [Example 69] the logp was 4.14.
Work on `CC(C)CC(=O)Nc1cccc(CON=C(c2ccc(Cl)c(C(F)(F)F)c2)c2nnnn2C)n1` [Example 70] yielded a logp of 4.26.
With `CC(C)CC(=O)Nc1cccc(CON=C(c2ccc(C(F)(F)F)c(Cl)c2)c2nnnn2C)n1` [Example 71] the logp was 4.29.
For `Cc1c(F)cccc1C(=NOCc1cccc(NC(=O)CC(C)C)n1)c1nnnn1C` [Example 73], the logp was 3.53.
Compound `Cc1ccc(F)c(C(=NOCc2cccc(NC(=O)CC(C)C)n2)c2nnnn2C)c1` [Example 75] has a logp of 3.42.
`CCCCCOC(=O)Nc1cccc(CON=C(c2ccc(C)c(C(F)(F)F)c2)c2nnnn2C)n1` [Example 78] gave a logp of 5.05.
With `CCCCCOC(=O)Nc1cccc(CON=C(c2ccc(C(F)(F)F)c(Cl)c2)c2nnnn2C)n1` [Example 79] the logp was 5.23.
`CCCCCOC(=O)Nc1cccc(CON=C(c2ccc(C)c(C(F)(F)F)c2)c2nnnn2C)n1` [Example 81] showed a logp of 5.08.
In the case of `CCCCCOC(=O)Nc1cccc(CON=C(c2ccc(F)c(C(F)(F)F)c2)c2nnnn2C)n1` [Example 82], the logp is reported as 4.86.
In the case of `CCCCCOC(=O)Nc1cccc(CON=C(c2cc(C)ccc2Cl)c2nnnn2C)n1` [Example 83], the logp is reported as 4.54.
With `CCCCCOC(=O)Nc1cccc(CON=C(c2cc(C)ccc2Cl)c2nnnn2C)n1` [Example 84] the logp was 4.73.
In the case of `CCCCCOC(=O)Nc1cccc(CON=C(c2ccc(C(F)(F)F)c(Cl)c2)c2nnnn2C)n1` [Example 86], the logp is reported as 5.2.
`CCCCCOC(=O)Nc1cccc(CON=C(c2cccc(C(F)(F)F)c2Cl)c2nnnn2C)n1` [Example 87] showed a logp of 4.81.
`CCCCCOC(=O)Nc1cccc(CON=C(c2ccc(Cl)c(C(F)(F)F)c2)c2nnnn2C)n1` [Example 88] showed a logp of 5.14.
Compound `CCCCCC(=O)Nc1cccc(CON=C(c2ccc(C)c(C(F)(F)F)c2)c2nnnn2C)n1` [Example 89] has a logp of 4.56.
With `CCCCC(=O)Nc1ccnc(CON=C(c2ccc(C)c(C(F)(F)F)c2)c2nnnn2C)n1` [Example 90] the logp was 3.94.
Work on `CCCCCOC(=O)Nc1cccc(CON=C(c2ccc(C)cc2Cl)c2nnnn2C)n1` [Example 91] yielded a logp of 4.7.
Compound `CCCCCOC(=O)Nc1cccc(CON=C(c2ccc(C)cc2Cl)c2nnnn2C)n1` [Example 92] has a logp of 4.54.

Same assay, conditions: reversed phase HPLC column, pH 2.7, 0.1% formic acid in water / acetonitrile gradient 10% to 95%
`CCCCOC(=O)Nc1ccnc(CON=C(c2ccc(C)c(C(F)(F)F)c2)c2nnnn2C)n1` [Example 8, butyl(2-{[({(1-methyl-1H-tetrazol-5-yl)[4-methyl-3-(trifluoromethyl)phenyl]methylidene}amino)oxy]methyl}pyrimidin-4-yl)carbamate] gave a chromatographic logP of 4.24.
With `CCCCCOC(=O)Nc1nc(CON=C(c2ccc(C)c(C(F)(F)F)c2)c2nnnn2C)cs1` [Example 22, pentyl(4-{[({(1-methyl-1H-tetrazol-5-yl)[4-methyl-3-(trifluoromethyl)phenyl]methylidene}amino)oxy]methyl}-1,3-thiazol-2-yl)carbamate] the chromatographic logP was 4.73.
With `CCCCCC(=O)Nc1cccc(CON=C(c2cccc(C(F)(F)F)c2F)c2nnnn2C)n1` [Example 27, N-(6-{[({[2-fluoro-3-(trifluoromethyl)phenyl](1-methyl-1H-tetrazol-5-yl)methylidene}amino)oxy]methyl}pyridin-2-yl)hexanamide] the chromatographic logP was 4.16.
